Measured values reported in the supplement of paper PMC8671470.
± gives the standard deviation of the averaged measurements.

How the values were obtained:
HL-60 [1] = assay: area under dose-response curve (viability, 1 nM-10 uM) (fraction (0-1)); higher = more sensitive; conditions: 72 h
In short: (§1)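 Area under the curve, where listed, was derived from four-parameter log-logistic fits with drc and PharmacoGx. These fits used CellTiter-Glo viability from HL-60 cells in RPMI 1640 with 10% FBS, normalised to DMSO wells and wells holding 10 μM proteasome inhibitor. The full library was rescreened on 384-well plates in duplicate at five tenfold concentrations, 1–10,000 nM, with DMSO or 100 nM of one of three metabolic inhibitors, for 72 h at 37 °C, 5% CO2.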

HL-60 [2] = assay: cell viability (% survival relative to DMSO control); higher = less cytotoxic; conditions: 72 h
In short: as §1

[3] = co-treatment: GSK2194069 100 nM
[4] = co-treatment: pictilisib 100 nM
[5] = 0.001 µM, co-treatment: AZD3965 100 nM
[6] = 0.001 µM, co-treatment: DMSO vehicle
[7] = 0.001 µM, co-treatment: GSK2194069 100 nM
[8] = 0.001 µM, co-treatment: pictilisib 100 nM
[9] = 0.01 µM, co-treatment: AZD3965 100 nM
[10] = 0.01 µM, co-treatment: DMSO vehicle
[11] = 0.01 µM, co-treatment: GSK2194069 100 nM
[12] = 0.01 µM, co-treatment: pictilisib 100 nM
[13] = 0.1 µM, co-treatment: AZD3965 100 nM
[14] = 0.1 µM, co-treatment: DMSO vehicle
[15] = 0.1 µM, co-treatment: GSK2194069 100 nM
[16] = 0.1 µM, co-treatment: pictilisib 100 nM
[17] = 1 µM, co-treatment: AZD3965 100 nM
[18] = 1 µM, co-treatment: DMSO vehicle
[19] = 1 µM, co-treatment: GSK2194069 100 nM
[20] = 1 µM, co-treatment: pictilisib 100 nM
[21] = 10 µM, co-treatment: AZD3965 100 nM
[22] = 10 µM, co-treatment: DMSO vehicle
[23] = 10 µM, co-treatment: GSK2194069 100 nM
[24] = 10 µM, co-treatment: pictilisib 100 nM

SMILES | area under dose-response curve (HL-60 [1]; co-treatment: AZD3965 100 nM) | area under dose-response curve (HL-60 [1]; co-treatment: DMSO vehicle) | area under dose-response curve (HL-60 [1]; [3]) | area under dose-response curve (HL-60 [1]; [4]) | cell viability (HL-60 [2]; [5]) [%] | cell viability (HL-60 [2]; [6]) [%] | cell viability (HL-60 [2]; [7]) [%] | cell viability (HL-60 [2]; [8]) [%] | cell viability (HL-60 [2]; [9]) [%] | cell viability (HL-60 [2]; [10]) [%] | cell viability (HL-60 [2]; [11]) [%] | cell viability (HL-60 [2]; [12]) [%] | cell viability (HL-60 [2]; [13]) [%] | cell viability (HL-60 [2]; [14]) [%] | cell viability (HL-60 [2]; [15]) [%] | cell viability (HL-60 [2]; [16]) [%] | cell viability (HL-60 [2]; [17]) [%] | cell viability (HL-60 [2]; [18]) [%] | cell viability (HL-60 [2]; [19]) [%] | cell viability (HL-60 [2]; [20]) [%] | cell viability (HL-60 [2]; [21]) [%] | cell viability (HL-60 [2]; [22]) [%] | cell viability (HL-60 [2]; [23]) [%] | cell viability (HL-60 [2]; [24]) [%]
O=C(Oc1ccc([N+](=O)[O-])cc1)N1CCC(C(O)(c2ccc3c(c2)OCO3)c2ccc3c(c2)OCO3)CC1 [JZL184] | < 0.0301 | < 0.0301 | < 0.0301 | < 0.0301 | 110 ± 11 | 100 ± 1.5 | 103 ± 3.2 | 83.1 ± 35 | 92.8 ± 12 | 93.8 ± 6 | 99.6 ± 1 | 89.4 ± 14 | 104 ± 2.5 | 100.9 ± 0.17 | 99.2 ± 8.9 | 97.2 ± 3 | 98.7 ± 2.8 | 101 ± 2.3 | 101 ± 4.3 | 95.5 ± 2.7 | 105.1 ± 0.87 | 97.3 ± 2.7 | 107 ± 13 | 99 ± 11
OCC(CO)N[C@H]1C[C@](O)(CO)[C@@H](O)[C@H](O)[C@H]1O [Voglibose] | – | – | – | – | 96.2 ± 11 | 99.5 ± 2.6 | 104 ± 19 | 113 ± 7.6 | 103 ± 2.7 | 99.9 ± 7 | 104 ± 7.5 | 112 ± 7.8 | 100 ± 4.9 | 100 ± 5.8 | 104 ± 3.5 | 106 ± 12 | 96.5 ± 4.9 | 99.4 ± 2.4 | 79.9 ± 24 | 81.9 ± 38 | 93.58 ± 0.69 | 99.5 ± 1.4 | 97.3 ± 1.8 | 99.1 ± 1.8
OCCN1C[C@H](O)[C@@H](O)[C@H](O)[C@H]1CO [Miglitol] | < 0.0301 | < 0.0301 | < 0.0301 | < 0.0301 | 100.7 ± 0.68 | 96 ± 3.3 | 99.52 ± 0.9 | 97.8 ± 6.1 | 103.6 ± 0.14 | 101 ± 2.5 | 109 ± 3 | 104 ± 3.2 | 94.8 ± 14 | 96.3 ± 4.1 | 91.7 ± 16 | 86.9 ± 14 | 102 ± 2.9 | 94.9 ± 8.1 | 97.8 ± 7.8 | 98.1 ± 6.2 | 100.28 ± 0.095 | 99.54 ± 0.43 | 109 ± 7.6 | 106 ± 1.8
NCc1ccc(-c2cccnc2)s1 [(5-Pyrid-3-YLTHIEN-2-YL)METHYLAMINE] | < 0.0301 | < 0.0301 | < 0.0301 | < 0.0301 | 103 ± 3.5 | 103 ± 1.9 | 105 ± 2.2 | 104 ± 11 | 78 ± 37 | 101 ± 5.8 | 94.3 ± 13 | 91.2 ± 27 | 114 ± 1.4 | 109 ± 2.6 | 107.2 ± 0.96 | 113 ± 2.4 | 97 ± 1 | 92.7 ± 13 | 95.1 ± 2.1 | 92.2 ± 5.2 | 101 ± 1.1 | 98.43 ± 0.59 | 96.7 ± 4.5 | 96.9 ± 2.8
CN1CC(=O)N2[C@H](c3ccc4c(c3)OCO4)c3[nH]c4ccccc4c3C[C@@H]2C1=O [Tadalafil] | < 0.0301 | < 0.0301 | < 0.0301 | < 0.0301 | 104 ± 3.4 | 100.5 ± 0.71 | 101.9 ± 0.6 | 99.6 ± 3 | 105.1 ± 0.41 | 103 ± 3.7 | 106 ± 1.3 | 94.8 ± 7.5 | 97.6 ± 2.9 | 98 ± 8.3 | 102 ± 1.4 | 96.9 ± 3.5 | 104 ± 1.3 | 100 ± 1.4 | 105 ± 1.2 | 93.4 ± 7.5 | 109 ± 1.1 | 112 ± 6.6 | 95.2 ± 2.1 | 89.9 ± 8.3
O=C(CCl)N(CCCNC(=O)C(F)(F)F)c1ccc([N+](=O)[O-])cc1 [ML175] | 0.125 | 0.133 | 0.14 | 0.136 | 103 ± 2.1 | 104 ± 5.9 | 100 ± 1.6 | 101 ± 6.9 | 100 ± 1.6 | 103 ± 1.5 | 92.97 ± 0.7 | 94.4 ± 3.7 | 102.27 ± 0.062 | 99.79 ± 0.16 | 98.3 ± 4.5 | 98.5 ± 3.1 | 104 ± 5.7 | 99.8 ± 6 | 95.2 ± 5.3 | 95.1 ± 3.8 | 0.129 ± 0.42 | -1.45 ± 0.48 | -1.73 ± 0.33 | 1.1 ± 1.7
N[C@@H](CCC(=O)N[C@@H](CS)C(=O)NCC(=O)O)C(=O)O [Glutathione] | < 0.0301 | < 0.0301 | < 0.0301 | < 0.0301 | 99.7 ± 0.66 | 101 ± 1.5 | 96.2 ± 3.6 | 96.6 ± 2.5 | 98.74 ± 0.26 | 99.78 ± 0.85 | 100.3 ± 0.86 | 96.4 ± 9.4 | 99.1 ± 1.7 | 99.69 ± 0.58 | 95.1 ± 7.2 | 86.3 ± 15 | 102 ± 6.2 | 98.63 ± 0.24 | 101 ± 11 | 96.3 ± 9.8 | 99.8 ± 1.6 | 102.2 ± 0.32 | 100.27 ± 0.053 | 106 ± 4.5
CCCCCCCCCCCCCCOc1ccc(C(=O)O)o1 [TOFA] | < 0.0301 | < 0.0301 | < 0.0301 | 0.114 | 96.4 ± 6.9 | 98.8 ± 0.47 | 81.3 ± 24 | 80.5 ± 24 | 101 ± 5.1 | 102 ± 3.9 | 96.3 ± 8.4 | 100 ± 1.6 | 104 ± 9.2 | 98.8 ± 3 | 84.6 ± 29 | 94.5 ± 3.8 | 97.5 ± 1.2 | 98.5 ± 2.7 | 95.9 ± 13 | 107 ± 7.6 | 100 ± 1.9 | 97.592 ± 0.042 | 94.01 ± 0.71 | 2.06 ± 0.22
C[C@H]1O[C@H](O[C@H]2[C@H](O)[C@@H](O)[C@@H](O[C@H]3[C@H](O)[C@@H](O)C(O)O[C@@H]3CO)O[C@@H]2CO)[C@H](O)[C@@H](O)[C@@H]1N[C@H]1C=C(CO)[C@@H](O)[C@H](O)[C@H]1O (mixture of isomers) [Acarbose] | < 0.0301 | < 0.0301 | < 0.0301 | < 0.0301 | 112.2 ± 0.44 | 100.2 ± 1 | 108.6 ± 0.84 | 105 ± 15 | 96.77 ± 0.55 | 98.3 ± 3.1 | 98.7 ± 7.9 | 104 ± 10 | 99 ± 1.9 | 102 ± 3.2 | 97.7 ± 2.8 | 101 ± 5.1 | 99.3 ± 1 | 104 ± 1.1 | 92.59 ± 0.43 | 96.9 ± 3.6 | 88.1 ± 3.5 | 97.771 ± 0.0011 | 97.3 ± 3 | 102.6 ± 0.5
Cn1cc(C[C@@H](N)C(=O)O)c2ccccc21 [Indoximod] | < 0.0301 | < 0.0301 | < 0.0301 | < 0.0301 | 89.7 ± 8 | 100 ± 5.2 | 96.5 ± 4.6 | 110 ± 8.8 | 96.1 ± 6.9 | 98.7 ± 1.6 | 88.55 ± 0.44 | 63.4 ± 34 | 104 ± 4.9 | 112 ± 11 | 115 ± 26 | 120 ± 22 | 106 ± 7.9 | 110 ± 9.6 | 113 ± 31 | 123 ± 29 | 101 ± 2.1 | 96.7 ± 1.3 | 86.2 ± 27 | 93.9 ± 19
